The record followed here is ChEMBL document CHEMBL1201862, “PubChem BioAssay data set” (2004).

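Step 1: Grow cells in 96-well plates. Step 2: Expose to compound for 48 hours at 5 concentrations. Step 3: Interpolate endpoints linearly; if unreached, use highest concentration. GI50 is the concentration that inhibits growth by half.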 The source made the active and inactive calls. Rule as the data show it: active = GI50 up to about 1.1 µM and inactive = higher. Non-standard residues stand in square brackets, D forms with d. Residues, ends and D or L forms follow the SMILES beside them. ξ: configuration not given here. *: point of attachment. ξHyp = O=C(O)C1CC(O)CN1; Cbz = O=C(OCc1ccccc1)*

Among the test systems are M14; MCF7; 786-0; HOP-92; SNB-75; DU-145; TK-10; NCI/ADR-RES; ACHN; NCI-H522; CCRF-CEM; RXF 393; MDA-MB-435; SR; HOP-18; DMS-114; DLD-1; SNB-78; M19-MEL; DMS-273.
Assay in all cases: growth of human tumour cells (NCI), 48 h

Consider `CCc1cc2c(cc1CCCC(=O)O)CC1(Cc3ccc(C(=O)O)cc3C1)C2` (stereo not drawn), for which the GI50 in the experiment on M14, in the experiment on MCF7, in the experiment on 786-0, with HOP-92, with SNB-75 and in the experiment with DU-145 was > 100 µM (inactive) throughout. The GI50 in the experiment with TK-10, in the experiment with NCI/ADR-RES, in the experiment on ACHN, with NCI-H522, with CCRF-CEM and with RXF 393 was > 100 µM (inactive) throughout. Moreover, the GI50 with MDA-MB-435 and in the experiment with SR was > 100 µM (inactive) throughout.
Regarding `COC1C(O)CC(OC2CC(Oc3cc4cc5c(c(O)c4c(O)c3C)C(=O)[C@@H](OC3CC(OC4CC(OC6CC(C)(O)C(OC(C)=O)C(C)O6)C(O)C(C)O4)C(O)C(C)O3)[C@H]([C@H](OC)C(=O)[C@@H](O)[C@@H](C)O)C5)OC(C)C2OC(C)=O)OC1C` (stereo partly drawn) [CHROMOMYCIN], the GI50 in the experiment on HOP-18 was 0.00445 µM (active); in the experiment with DMS-114, 2.14e-05 µM (active); in the experiment on MCF7, 0.00312 µM (active); with HOP-92 it was < 0.01 µM (active); in the experiment on SNB-75, < 0.01 µM (active); with DU-145, 2.48e-05 µM (active). Also, the GI50 with TK-10 was 0.000119 µM (active); in the experiment with DLD-1 it was 0.00849 µM (active); in the experiment with SNB-78, 0.00337 µM (active); with NCI/ADR-RES, 0.75 µM (active); in the experiment on ACHN it was 4.71e-05 µM (active); in the experiment with NCI-H522, 0.00366 µM (active). Further, the GI50 is < 0.01 µM (active) in the experiment with CCRF-CEM; 0.00311 µM (active) in the experiment on RXF 393; 2.44e-05 µM (active) in the experiment with MDA-MB-435; < 0.01 µM (active) in the experiment on SR; 0.00337 µM (active) in the experiment with M19-MEL.
For `CCCC[C@H]1[C@@H](OCOc2ccccc2)COC(=O)N1[C@H](C)c1ccccc1`, the GI50 with M14 is 12.6 µM (inactive); with MCF7, 11.2 µM (inactive); in the experiment on HOP-92, 18.1 µM (inactive); in the experiment with SNB-75, 10.8 µM (inactive); in the experiment with DU-145 it was 21.5 µM (inactive); in the experiment on TK-10, 15.6 µM (inactive). Further, the GI50 in the experiment on NCI/ADR-RES is > 34.3 µM (inactive); in the experiment on ACHN it was 18.2 µM (inactive); with NCI-H522, 10.3 µM (inactive); with CCRF-CEM, 16.8 µM (inactive); with RXF 393 it was 19 µM (inactive); in the experiment on MDA-MB-435, 13.3 µM (inactive). Also, the GI50 in the experiment on SR is 8.49 µM (inactive).
Take `Cc1cccc(N2C(=O)C3c4[nH]c5ccc(C)cc5c4C4CCC(C(C)(C)C)CC4C3C2=O)c1` (stereo not drawn): the GI50 was 20.2 µM (inactive) in the experiment with M14; 15.7 µM (inactive) with HOP-92; 16.1 µM (inactive) with DU-145; 24.6 µM (inactive) with TK-10; 17.6 µM (inactive) with NCI/ADR-RES; 19.9 µM (inactive) with NCI-H522. The GI50 is 21.4 µM (inactive) in the experiment on CCRF-CEM and 40.9 µM (inactive) with MDA-MB-435.
With `N#CCCC1(CCC#N)CCCCCCC(CCC#N)(CCC#N)C(O)C1O` (stereo not drawn), the GI50 with M14, in the experiment on MCF7, in the experiment with 786-0, in the experiment with HOP-92, in the experiment on SNB-75 and in the experiment on DU-145 was > 100 µM (inactive) in each case. Further, the GI50 with TK-10, in the experiment with NCI/ADR-RES, in the experiment with ACHN, in the experiment on NCI-H522, with RXF 393 and with MDA-MB-435 was > 100 µM (inactive) throughout. Besides, in the experiment on SR, the GI50 is 65.3 µM (inactive).
`COc1cccc(N2C(=O)C3c4[nH]c5ccc(C)cc5c4C4CCC(C(C)(C)C)CC4C3C2=O)c1` (stereo not drawn): the GI50 in the experiment on M14 is 8 µM (inactive); in the experiment with MCF7, 2.99 µM (inactive); with SNB-75, 2.51 µM (inactive); with DU-145, > 10 µM (inactive); in the experiment on TK-10, > 10 µM (inactive); in the experiment on NCI/ADR-RES it was 3.51 µM (inactive). The GI50 was > 10 µM (inactive) with ACHN; 1.87 µM (inactive) in the experiment on NCI-H522; 2.77 µM (inactive) in the experiment on CCRF-CEM; 3.8 µM (inactive) in the experiment with RXF 393; > 10 µM (inactive) in the experiment with MDA-MB-435; 2 µM (inactive) in the experiment with SR.
Take `COc1cc(C(C)O)c(S(=O)(=O)CC(C)O)nn1` (stereo not drawn): the GI50 with M14, with MCF7, in the experiment on HOP-92, with DU-145, with TK-10 and in the experiment with NCI/ADR-RES was > 100 µM (inactive) throughout. Moreover, the GI50 was > 100 µM (inactive) with ACHN; > 100 µM (inactive) in the experiment with NCI-H522; > 100 µM (inactive) with CCRF-CEM; 85.3 µM (inactive) in the experiment on RXF 393; > 100 µM (inactive) in the experiment on MDA-MB-435; 43.6 µM (inactive) with SR.
`NC(=O)CNC(=O)C1CC(O)CN1C(=O)OCc1ccccc1` (stereo not drawn) (Cbz-[ξHyp]-Gly-NH2): the GI50 with M14, in the experiment with MCF7, with 786-0, with SNB-75, in the experiment on DU-145 and in the experiment on TK-10 was > 100 µM (inactive) throughout. Besides, the GI50 in the experiment on NCI/ADR-RES, in the experiment on ACHN, in the experiment with NCI-H522, in the experiment with CCRF-CEM, in the experiment on RXF 393 and in the experiment on MDA-MB-435 was > 100 µM (inactive) each time. In the experiment on SR, the GI50 is > 100 µM (inactive).
On to `CCOC(=O)C(O)(NC(=O)c1ccc(F)cc1)C(F)(F)F` (stereo not drawn), for which the GI50 with M14, with MCF7, with HOP-92, in the experiment on SNB-75, in the experiment with DU-145 and in the experiment on TK-10 was > 100 µM (inactive) each time. The GI50 in the experiment with NCI/ADR-RES, in the experiment on ACHN, with NCI-H522, in the experiment on CCRF-CEM, with RXF 393 and in the experiment with MDA-MB-435 was > 100 µM (inactive) each time. Further, the GI50 in the experiment with SR is > 100 µM (inactive).
Take `CCN(CC)CCOC(=O)c1ccc(N)cc1.CCOC(=O)Nc1ccc(S(=O)(=O)OC)cc1.CCOC(=O)Nc1ccc(S(=O)(=O)OC)cc1.Nc1ccc(C(=O)O)c(O)c1`: the GI50 in the experiment on HOP-18 was > 100 µM (inactive); in the experiment on M14, > 100 µM (inactive); in the experiment with DMS-114, > 100 µM (inactive); in the experiment with 786-0 it was > 100 µM (inactive); in the experiment on HOP-92 it was > 100 µM (inactive); in the experiment with SNB-75, 40.2 µM (inactive). The GI50 with TK-10, in the experiment with DLD-1, with SNB-78, in the experiment on ACHN, in the experiment on NCI-H522 and with CCRF-CEM was > 100 µM (inactive) each time. In addition, the GI50 in the experiment on RXF 393 and in the experiment on M19-MEL was > 100 µM (inactive) in each case.
With `O=C(c1ccccn1)C1(N2CCCCC2)CCCCC1`, the GI50 in the experiment with M14 was > 100 µM (inactive); with MCF7, > 100 µM (inactive); in the experiment with 786-0 it was > 100 µM (inactive); with HOP-92 it was 9.75 µM (inactive); in the experiment on DU-145, > 100 µM (inactive); with TK-10 it was > 100 µM (inactive). Further, the GI50 with NCI/ADR-RES is 46.5 µM (inactive); in the experiment with ACHN, > 100 µM (inactive); in the experiment on NCI-H522, 15.5 µM (inactive); in the experiment with CCRF-CEM, > 100 µM (inactive); in the experiment with MDA-MB-435, > 100 µM (inactive); in the experiment with SR, > 100 µM (inactive).
Regarding `C[n+]1c2ccccc2c(C(=O)NC(CCCNC(=N)N)C(=O)O)c2ccccc21` (stereo not drawn), the GI50 with M14, in the experiment on MCF7, in the experiment with 786-0, with SNB-75, in the experiment on DU-145 and in the experiment with TK-10 was > 100 µM (inactive) throughout. Besides, the GI50 in the experiment on NCI/ADR-RES is > 100 µM (inactive); in the experiment with ACHN, > 100 µM (inactive); in the experiment on MDA-MB-435 it was > 100 µM (inactive); with SR, 1.31 µM (inactive).
On to `CCC(C)COC(=O)c1ccc(/N=C\c2ccc(/C=N/c3ccc(C(=O)OCC(C)CC)cc3)cc2)cc1` (stereo not drawn), for which the GI50 with HOP-18, in the experiment with M14, in the experiment with DMS-114, in the experiment on 786-0, in the experiment with HOP-92 and in the experiment on SNB-75 was > 100 µM (inactive) throughout. Besides, the GI50 with DLD-1, in the experiment with SNB-78, in the experiment with ACHN, in the experiment on DMS-273, in the experiment with NCI-H522 and in the experiment with CCRF-CEM was > 100 µM (inactive) throughout. Further, the GI50 with RXF 393 and with SR was > 100 µM (inactive) each time.
As for `CC1=C[C@]2(CC(C)C3C(CC4(C)C5CCC6C(C)(C)C(=O)CC[C@@]67C[C@@]57CC[C@]34C)O2)OC1=O` (stereo partly drawn), the GI50 in the experiment with HOP-18 is 6.43 µM (inactive); with M14, 47.3 µM (inactive); in the experiment with DMS-114, 3.81 µM (inactive); in the experiment on HOP-92, 18.1 µM (inactive); with SNB-75 it was 16.8 µM (inactive); in the experiment with TK-10, 26 µM (inactive). The GI50 with DLD-1 was 11 µM (inactive); in the experiment with SNB-78, 23.2 µM (inactive); with ACHN, 24.6 µM (inactive); with DMS-273 it was 3.95 µM (inactive); with CCRF-CEM, > 100 µM (inactive); in the experiment with RXF 393 it was 5.11 µM (inactive). For the same compound, in the experiment with SR, the GI50 is 3.82 µM (inactive).
